Results reported in patent US8334403B1, “C-lysine conjugates as pH-controlled, light-activated reagents for double stranded DNA cleavage and associated methods” (Florida State University Research Foundation, Inc., priority 2005, dated 2012).

Experiments:
[1] = tested on: pBR322 plasmid DNA; assay: Plasmid relaxation assay: DNA photocleavage of supercoiled plasmid under UV irradiation; format: biochemical
Procedure: General information. ^1H, ^13C and ^19F NMR were collected on a Varian Gemini 300 MHz NMR spectrometer and a Bruker 300 MHz NMR spectrometer. Mass spectrometry data was collected on a Jeol JMS-600H. UV spectra were recorded on a Shimadzu UV-2100. Fluorescence spectra were obtained with SPEX FluoMax spectrofluorimeter using right-angle geometry. pH was adjusted with AB 15 plus pH meter (Accument) after standardization at 25° C. All buffers were prepared and pH-adjusted at room temperature (25° C.). Plasmid DNA Photocleavage. pBR322 plasmid DNA (4,361 b/p; from BioLabs Inc., 1 μg/μL solution in 10 mM Tris-HCl (pH 8.0), and 1 mM EDTA buffer) was diluted to a concentration of 0.01 μg/μL. The solution containing cleavage agent, DNA (30 μM/bp) in 20 mM sodium phosphate buffer was incubated for 1 hour at 30° C. Samples were placed on ice at a distance of 20 cm from 200 W Hg—Xe lamp (Spectra-Physics, Laser & Photonics Oriel Instruments with long pass filter with 324 nm cut-off wavelength). Electrophoretic Analysis. The gel electrophoresis was carried out in 1×TBE buffer at 80 V using Miligel FisherBiotech Horizontal Electrophoresis System. All gels were run on 1% agarose slab gels. Before loading, the DNA samples were mixed with 0.33 volume of tracking dye containing bromophenol blue (0.25%) and glycerol (30%) in water. After staining in ethidium bromide solution (2 μg/ml) for 1 hour, the gel was washed with water and pictures were taken with Polaroid 3000ISO type 667 film. The relative quantities of the supercoiled, nicked, and linear DNA were calculated by integrating the “area” of each spot by the image analyzer software Total/Lab (Nonlinear Dynamics Ltd., UK). The amount of supercoiled DNA was multiplied by factor of 1.4 to account for reduced ethidium bromide intercalation into supercoiled DNA. pH titration by ^1H-NMR. pH* of compound 8 (3 mM) solution in D2O containing 0.05 wt % 3-(trimethylsilyl)propionic-2,2,3,3-d4 acid, sodium salt (TSP-d4) was adjusted with 10 wt % DCI and NaOD in D2O at 25° C. under argon purged condition. Spectrometric determinations of pKa. pH of 10 μM of compound solution in H2O was adjusted with 10, 100 mM HCl (aq) and NaOH (aq) solution under argon purged condition. Excitation wavelength was 330 nm and polymethacrylate fluorimeter cuvettes were used. Absorbance and fluorescence titration with DNA. The concentrations of calf thymus DNA stock solution was determined spectophotometrically using the following molar absorptovity values: 1.32×10^4 M^−1 cm^−1 (per base pair) at 260 nm. All experiments were done in 20 mM sodium phosphate buffer at 25° C. and polymethacrylate fluorimeter cuvettes were used. The same amount of DNA was added to both sample and reference cuvettes during UV/Vis titration. Determination of excited state lifetimes. The concentration of compound solution was 10 μM in 20 mM sodium phosphate buffer. The photoluminescence lifetime measurements were conducted by exciting the samples with the output of a Nd:VO—4 (Spectra-Physics Vanguard, 2 W, 532 nm, 76 MHz, 10 ps) pumped R6G dye laser (Coherent 702-1). The output of the dye laser (600 nm, Rhodamine 6G) was cavity dumped at 1.9 MHz and frequency doubled using a BBO crystal to excite the fluorophore (the excitation wavelength used was 290 nm). Samples were excited with <1 mW power and the emission was collected at right angles onto a Chromex S3 500 is 0.5 m imaging monochromator with a 50 g/mm grating and 0.5 nm resolution. Output of the monochromator is focused into a Hamamatsu C5680 streak camera operating at a 20 ns window for the fluorophore. Intensity analysis was carried out by integrating the spectral profile in time on the streak camera. Lifetime analysis over 6-7 lifetimes of the fluorophore was conducted by binning the photoluminescence intensity collected on the streak camera over a 20 nm spectral window at the centroid value of the emission of the fluorophore. Ethidium bromide displacement. […]

[2] = tested on: CT DNA; assay: Ethidium bromide displacement assay; format: binding, calf; conditions: 10 μM ethidium bromide, 10 μM CT DNA
Procedure: General information. ^1H, ^13C and ^19F NMR were collected on a Varian Gemini 300 MHz NMR spectrometer and a Bruker 300 MHz NMR spectrometer. Mass spectrometry data was collected on a Jeol JMS-600H. UV spectra were recorded on a Shimadzu UV-2100. Fluorescence spectra were obtained with SPEX FluoMax spectrofluorimeter using right-angle geometry. pH was adjusted with AB 15 plus pH meter (Accument) after standardization at 25° C. All buffers were prepared and pH-adjusted at room temperature (25° C.). Plasmid DNA Photocleavage. pBR322 plasmid DNA (4,361 b/p; from BioLabs Inc., 1 μg/μL solution in 10 mM Tris-HCl (pH 8.0), and 1 mM EDTA buffer) was diluted to a concentration of 0.01 μg/μL. The solution containing cleavage agent, DNA (30 μM/bp) in 20 mM sodium phosphate buffer was incubated for 1 hour at 30° C. […] The relative quantities of the supercoiled, nicked, and linear DNA were calculated by integrating the “area” of each spot by the image analyzer software Total/Lab (Nonlinear Dynamics Ltd., UK). […] Absorbance and fluorescence titration with DNA. The concentrations of calf thymus DNA stock solution was determined spectophotometrically using the following molar absorptovity values: 1.32×10^4 M^−1 cm^−1 (per base pair) at 260 nm. […]

[3] = tested on: LNCap human prostate adenocarcinoma cells; assay: LNCap cell proliferation assay; format: cell-based
[4] = tested on: three human clear cell renal cell carcinoma (RCC) cell lines (UMRC3, UMRC6, 786-O); assay: RCC cell proliferation assay, three cell lines together; format: cell-based; conditions: 10 μM
Procedure: FIG. 23 provides the results of cell proliferation assays using three different RCC cell lines: (a) UMRC3, (b) UMRC6 and (c) 786-O, and compounds I-5; RCC cells were resuspended in media and treated with UV radiation (350 nm) for 10 minutes with and without indicated compounds; control cells were exposed to the indicated compound 1-5 at final concentration of 10 μM; cell numbers determined after 72 hours as described in the SI Section;
The ability of compounds 1-5 to inhibit cell proliferation in three human clear cell renal cell carcinoma (RCC) cell lines was tested in the dark and under photoactivation (FIG. 23). No difference was detected in the control experiments between cells not exposed to UV versus those that were exposed to UV at 350 nm for 10 minutes in any of the three RCC cell lines tested (FIG. 23 A, B & C; first two columns).

Cl.Cl.NCCCC[C@H](N)C(=O)Nc1ccc(C#Cc2c(F)c(F)nc(F)c2F)cc1 [Compound 4, (S)-2,6-Diamino-hexanoic acid [4-(2,3,5,6-tetrafluoro-pyridin-4-ylethynyl)-phenyl]-amide dihydrochloride]
decrease of total DNA cleavage activity on increasing phosphate buffer from 10 mM to 50 mM ([1]; pH 5.5, 10 μM): 48% | irradiation time until plasmid DNA is completely consumed ([1]; pH 6, 10 μM): ≤ 5 min | protection of DNA from damage by hydroxyl radical/singlet oxygen scavengers ([1]; pH 6, 10 mM scavenger, 5 min irradiation): neither of the additives is able to protect DNA | intact DNA (Form I) remained ([1]; pH 6, 3 minutes of irradiation, 15 μM, 30 μM/bp DNA): 16% | decrease of total DNA cleavage activity on increasing phosphate buffer from 10 mM to 50 mM ([1]; pH 7, 10 μM): 40% | unreacted DNA (Form I) ([1]; pH 7, 3 minutes of irradiation, 15 μM, 30 μM/bp DNA): 60% | decrease of total DNA cleavage activity on increasing phosphate buffer from 10 mM to 50 mM ([1]; pH 8, 10 μM): 34% | unreacted DNA (Form I) ([1]; pH 8, 3 minutes of irradiation, 15 μM, 30 μM/bp DNA): 86% | DNA remains unreacted ([1]; pH 8, after an hour of irradiation, 10 μM): ~60% | displacement of intercalated ethidium bromide from its complex with DNA [2]: does not lead to the displacement | LNCap cells destroyed ([3]; 10 nM, UV 10 minutes, counted after 48 h): more than 90% | toxicity without light ([3]; no UV): almost no toxicity | cytotoxicity in the dark [4]: considerably less cytotoxic in the dark
